Assay results taken from article PMC7274539, “The selective glucocorticoid receptor antagonist CORT125281 has tissue-specific activity” (The Journal of Endocrinology, 2020).
Like-named read-outs stand apart in the source and are kept apart here.

Columns and labels:
[1] = molecular target: T1, human GR ligand-binding domain (Homo sapiens, UniProt P04150); assay: MARCoNI peptide interaction profiling (coregulator-nuclear receptor interaction); format: biochemical; settings: CORT125281 1 µM
T1 construct: purchased Invitrogen PV4689
T1 sequence (P04150 524-758 limits assumed): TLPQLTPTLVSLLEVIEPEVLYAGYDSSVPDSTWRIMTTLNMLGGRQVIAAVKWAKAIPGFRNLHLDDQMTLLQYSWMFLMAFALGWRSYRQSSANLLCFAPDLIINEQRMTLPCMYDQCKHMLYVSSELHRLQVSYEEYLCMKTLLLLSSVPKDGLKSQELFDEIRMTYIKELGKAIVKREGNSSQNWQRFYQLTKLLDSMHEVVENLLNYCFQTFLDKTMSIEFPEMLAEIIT
Protocol: As the assay utilizes human GR, experiments were performed with cortisol rather than corticosterone. […] Incubation was performed at 20°C in a PamStation96 (PamGene International, Den Bosch, Netherlands) for 40 min. Receptor binding to each peptide on the array, reflected by a fluorescent signal, was quantified by analysis of .tiff images using BioNavigator software (PamGene International).

[2] = Quantification of serum and tissue CORT125281 concentration by LC-MS; format: in vivo, C57Bl/6J mice; settings: male, C57Bl/6J, mouse, oral, 60 mg/kg/day for 6 days, mice
Protocol: (§1) All studies involving animals were approved by the institutional ethics committee on animal care and experimentation at the Leiden University Medical Center. The 8-week old male C57Bl/6J mice (Charles River) were housed in ventilated cages with a 12 h light:12 h darkness regime and ad libitum access to food and water. In the acute corticosterone exposure experiments, mice received a synthetic chow diet (Research Diets, New Brunswick, NJ, USA) containing vehicle or CORT125281 (6, 20 or 60 mg/kg/day, Corcept Therapeutics, Menlo Park, CA, USA) for 6 days. […] Mice were treated daily with vehicle, 60 mg/kg mifepristone (Corcept Therapeutics) or 60 mg/kg CORT125281 (dissolved in PBS with 0.1% Tween 80 and 0.5% hydroxypropylmethylcellullose, Corcept Therapeutics) via oral gavage for 5 days, after which mice were killed by CO2 inhalation. Throughout the experiment, body weight was monitored and body composition was determined with EchoMRI™ (Frankfurt, Germany). After 5 days, blood was collected from the lateral tail vain in paraoxon-coated capillaries after a 6-h fast. Plasma triglyceride, total cholesterol, free fatty acid, glucose and insulin levels were determined using commercially available kits (Roche; Instruchemie, Delfzijl, Netherlands and Crystal Chem, Zaandam, Netherlands). Blood concentrations of the major leukocyte classes, that is, lymphocytes, monocytes and eosinophils, were determined in whole blood using an automatic veterinary hematology analysis (Sysmex XT-2000iV; Goffin Meyvis, Etten-Leur, the Netherlands).
Compound levels were assessed against standard curves for CORT125281, ranging from 0.05–20 µM in each tissue. Tissues were weighed and water was added at three-fold the weight of each individual sample before homogenising. Internal standard (90 µL of 1 µM leucine enkephalin in acetonitrile) was added to all samples, standard curves and quality control spikes of CORT125281. After centrifugation, a fixed volume of supernatant was removed and pellets were dissolved in water. The samples were then analysed by LC-MS utilising a QTRAP 5500 mass spectrometer (Sciex, Warrington, UK), UPLC (Agilent) instrument, equipped with a C18 Cortecs UPLC analytical column (2.1 × 30 mm, […]). […] The gradient started with a mobile phase composition of 5% B which was held for 0.1 min. The percentage of B was then linearly ramped to 95% over 0.1 to 1.2 min and then held constant up to 1.3 min. […] The mass spectrometer was set to operate in negative ion mode. The ion source temperature was 650°C, the ion spray voltage was −4000 V, gases 1, 2 and curtain gas were 30 V, 60 V and 35 V, respectively, and the entrance and collisition exit potential were −10 V and −13 V. The collision energy and declustering potential used for the multiple reaction monitoring (MRM) transitions of CORT125281 were −28 V and −60 V, the Q1 and Q3 masses were 588.649 Da and 248.800 Da, while the collision energy and declustering potential for the internal standard were −40 V and 0 V and the Q1 and Q3 masses 554.2 Da and 235.9 Da.

[3] = system: GR transcriptional activity; assay: Subchronic corticosterone exposure: RT-qPCR of GR and insulin target genes in tissues; format: in vivo, C57Bl/6J mice; settings: corticosterone pellet 5 days, 60 mg/kg/day oral gavage
Protocol: as §1
In both acute and subchronic corticosterone experiments, relevant tissues (including quadriceps muscle, interscapular BAT, gonadal white adipose tissue (WAT), adrenals, spleen, thymus, pituitary and hippocampus) were collected to determine tissue weight and/or for further molecular analysis.
Total RNA was isolated from snap-frozen tissues using TriPure isolation reagent (Roche). After reverse transcription to cDNA (Promega), RT-qPCR was performed using IQ SYBR-Green supermix and MyIQ thermal cycler (Bio-RAD CFX96). Primers were tested for high efficiency (90–110%) and for amplification of a single PCR product. All primer sequences are listed in Supplementary Table 1 (see section on supplementary materials given at the end of this article), with the exception of Ncor1 and Ncor2 which were purchased from Qiagen. Fold change expression was calculated using the 2^−ΔΔ^CT method.

For `Cn1ncc(S(=O)(=O)N2CC[C@H]3Cc4c(cnn4-c4ccc(F)cc4)C[C@]3(C(=O)c3cc(C(F)(F)F)ccn3)C2)n1` [CORT125281], the “hierarchal clustering of ligand-induced GR-coregulator response profile” value [1] was “clustered with that of mifepristone”, the “number of coregulator motifs recruited compared to mifepristone” value [1] was “tended to recruit fewer motifs” and the “binding of corepressor motifs of NCOR1 and NCOR2 (SMRT) by ligand-GR complex” value ([1]; mifepristone 0.1 µM) was “only very modestly”. For the same molecule, the Kp at 6 days ([2]; BAT (brown adipose tissue) relative to plasma, read-out: tissue to plasma ratio, BAT) was 19.1, the concentration at 6 days ([2]; BAT (brown adipose tissue), BAT, read-out: CORT125281 level, BAT) was 4720 ng/g and the Kp at 6 days ([2]; WAT (white adipose tissue) relative to plasma, read-out: tissue to plasma ratio, WAT) was 46.7. The Kp at 6 days ([2]; brain (neocortex) relative to plasma, neocortex, read-out: tissue to plasma ratio, brain) was 1.8, the concentration at 6 days ([2]; gonadal WAT (white adipose tissue), gonadal WAT, read-out: CORT125281 level, WAT) was 12500 ng/g and the Kp at 6 days ([2]; liver relative to plasma, read-out: tissue to plasma ratio, liver) was 8. The concentration at 6 days ([2]; brain neocortex, read-out: CORT125281 level, brain) was 542 ng/g, the concentration at 6 days ([2]; liver, read-out: CORT125281 level, liver) was 2040 ng/g and the concentration at 6 days ([2]; plasma, read-out: CORT125281 level, plasma) was 419 ng/g. The “expression of insulin target genes G6p and Pepck in liver, Glut4 and Lpl in WAT, Glut4 and Gsk3b in muscle” value [3] was “did not affect” and the “corticosterone-induced expression of GR target genes (Fkbp5, Gilz, Sgk1, Mt2a)” value ([3]; liver, muscle, BAT, WAT, hippocampus) was “did not prevent”.
